{"source": "patent US8349333B2", "about": "“Allergy inhibitor compositions and kits and methods of using the same” (China Agricultural University, priority 2005, dated 2013)", "key": {"cats [1]": {"test_system": "cats", "experiment": "Dermatological scores of control cats treated with nitenpyram", "type": "in vivo", "conditions": "control groups, FIG. 5", "experimental": "(§1) To determine relationship of infestation and FAD symptom, 10 cats were separated into three groups, including an experimental group with six cats and two control groups with two cats each. One control group was treated nitenpyram, and another was not treated with the nitenpyram. Each experimental cat was lived separated on day 0 and infested with 100 fleas. After two days, all cats in this group were given the nitenpyram to remove the flea from their bodies. Two of the control cats were also given this medicine on day 0. This challenge cycle was repeated every other week for 7 times\nCats were scored by the dermatological assessments two days after ceasing each infestation. The assessments were included erythema, papules, crusts, scale, alopecia, excoriation. The body of each cat was divided into three portions to assess which part might have the most severe clinical outcome. According the previous documented report, three parts were consisted of: (1) back, from the head to the tail of dorsal surface; (2) double lateral abdomen, from the scapula to the tail; (3) chest and underside, from laryngeal to the caudomedial thighs."}, "cats [2]": {"test_system": "cats", "experiment": "Blood smear cell counts of control cats treated with nitenpyram", "type": "in vivo", "experimental": "as §1\nThe anti-coagulant peripheral blood at 2 ml was collected on days 0, 2, 16, 30, 44, 58, 62 from the experiment group and day 0, 14, 28, 42, 56, 60 from the control groups. The same samples were collected after the immunization. A drop of blood was smeared on a clean glass slide. After the smear was dried, the cells were stained with Wright-Giemsa stain for 15 min. After a rinse in deionized water, the smear was gently dried with Kimwipe paper and dehydrated by 96% and 100% ethonol with each 10 seconds treatment. The slide was then treated with xylene for 30 min.\nAfter the staining, nucleus and cytoplasm of blood cell was distinguished by a blue and pink staining. The percentage of each type of cells was counted by a total number of 200 cells in a view under a light microscope."}, "[3]": {"conditions": "peripheral blood, control group with nitenpyram, day 58"}}, "data": [{"smiles": "CCN(Cc1ccc(Cl)nc1)/C(=C/[N+](=O)[O-])NC", "note": "[nitenpyram]", "values": [{"measurement": "dermatology score, cats treated with nitenpyram compared with the ones without treatment", "setting": "cats [1]", "result": "no significant difference"}, {"measurement": "interference with the cell numbers in the cats' peripheral blood", "setting": "cats [2]; comparison of the two control groups", "result": "not to interfere"}, {"measurement": "Basophils (%)", "setting": "cats [2]; [3]", "result": 0.7, "unit": "%"}, {"measurement": "Eosinophils (%)", "setting": "cats [2]; [3]", "result": 3.4, "unit": "%"}, {"measurement": "Lymphocytes (%)", "setting": "cats [2]; [3]", "result": 21.8, "unit": "%"}, {"measurement": "Monocytes (%)", "setting": "cats [2]; [3]", "result": 3.6, "unit": "%"}, {"measurement": "Neutrophils (%)", "setting": "cats [2]; [3]", "result": 70.5, "unit": "%"}]}]}
